{
  "source": "patent US20240238271A1",
  "about": "“PHARMACEUTICAL COMPOSITION FOR ENHANCING CELL KILLING, AND USE THEREOF” (SHANGHAI JUNCELL THERAPEUTICS CO., LTD., priority 2020, published 2024)",
  "key": {"[1]": {"test_system": "primary tumor cells such as pancreatic tumor cells", "experiment": "Killing effect of TILs on primary tumor cells treated with hydroxychloroquine", "type": "cell-based, human", "description": "In a specific embodiment, TILs are obtained from tumor samples of pancreatic cancer patients with reference to the method disclosed in CN110785486A (which is incorporated herein by reference in its entirety). Primary tumor cells such as pancreatic tumor cells are treated with the TILs alone (control group) or in combination with a compound of Formula (I) (e.g., hydroxychloroquine) (compound group). The cells of the compound group are treated with different concentrations of the compound of Formula (I) (e.g., hydroxychloroquine) for more than 12 hours (e.g., 24 hours). Under different effect-to-target ratios were the killing effects of TILs on target cells in the control group and the compound group detected."}, "type I HLA (HLA-A, B, C) [2]": {"test_system": "type I HLA (HLA-A, B, C)", "experiment": "Type I HLA on surface of tumor cells of T008 PDX mice, flow cytometry MFI", "type": "in vivo, mouse", "settings": "60 mg/kg/day i.p. q.d. 30 days, vs PBS control", "description": "(§1) PDX mouse models derived from tissue T008 and tissue T018 were established according to the method of example 3. The model animals were grouped according to the following Table 7 in which mice were treated with hydroxychloroquine alone. Hydroxychloroquine used in the experiment was purchased from MCE (Cat. No.: HY-W031727).\n(§2) Mice were sacrificed 30 days after treatment, and tumor tissues were taken out and digested into a single-cell suspension with dispase. After staining with a general HLA-A, B, C flow cytometric antibody (Biolegend, PE-anti-human HLA-A, B, C Antibody Cat. NO. 311406), the phenotypes and fluorescence intensity (MFI) were measured by flow cytometry, and the MFI values of different groups of HLA-type I positive cells were counted and compared."}, "HLAs": {"test_system": "HLAs", "experiment": "HLA expression (positive rate) of tumor cells treated with hydroxychloroquine", "type": "cell-based, human", "settings": "compound group vs control group"}, "type I HLA (HLA-A, B, C) [3]": {"test_system": "type I HLA (HLA-A, B, C)", "experiment": "Type I HLA on surface of tumor cells of T018 PDX mice, flow cytometry MFI", "type": "in vivo, mouse", "settings": "60 mg/kg/day i.p. q.d. 30 days, vs PBS control", "description": "as §1, §2"}},
  "data": [
    {"smiles": "CCN(CCO)CCCC(C)Nc1ccnc2cc(Cl)ccc12", "note": "(centres unmarked) [hydroxychloroquine]", "values": [
      {"measurement": "concentration of hydroxychloroquine at which the effect on TIL killing is more clear", "setting": "[1]; compound group vs control group (TILs alone)", "value": "above 20 μM"},
      {"measurement": "killing effects of TILs on target cells", "setting": "[1]; primary tumor cells treated with hydroxychloroquine for more than 12 hours (e.g., 24 hours), different effect-to-target ratios, vs TILs alone", "value": "more effectively killed by TILs"},
      {"measurement": "expression levels of type I HLA on the surface of tumor cells", "setting": "type I HLA (HLA-A, B, C) [2]", "value": "significantly increased"},
      {"measurement": "positive rate of the cells (HLA expression)", "setting": "HLAs", "value": "significantly higher"},
      {"measurement": "expression levels of type I HLA on the surface of tumor cells", "setting": "type I HLA (HLA-A, B, C) [3]", "value": "significantly increased"}
    ]}
  ]
}
